For assay [1], the target named is T1, Gal4-RORγ-LBD (Homo sapiens, UniProt P51449).
T1 construct: expressed in transfected cells; host or cells: HEK-293 cells (pcDNA3.1neo plasmid)
T1 sequence (P51449 269-508 limits assumed): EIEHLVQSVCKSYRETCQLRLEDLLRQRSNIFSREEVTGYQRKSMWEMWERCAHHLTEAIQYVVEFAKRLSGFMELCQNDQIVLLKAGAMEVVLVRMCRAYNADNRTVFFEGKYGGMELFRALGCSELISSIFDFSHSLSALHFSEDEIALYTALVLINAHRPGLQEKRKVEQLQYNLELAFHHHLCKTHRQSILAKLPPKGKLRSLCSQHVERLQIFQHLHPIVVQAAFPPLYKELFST
Description: Gal4-RORγ Luciferase Reporter Assay in HEK-293T Cells. It is filed as cell-based. As to conditions: HEK-293 cells. The method, boiled down:
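Luminescence read-out (One-Glo, 10 min RT) after overnight compound exposure at 37 °C in HEK-293 cells carrying Gal4-RORγ-LBD plus a Gal4-luciferase reporter, in the presence of 2 μM ursolic acid. Max Response is the upper plateau from a 4-parameter logistic fit, normalized to untreated signal = 100.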

Assay [2] has as its target T2, RORγ-LBD (Homo sapiens, UniProt P51449).
T2 construct: made in house; host or cells: SF9 cells (baculovirus)
T2 sequence (P51449 269-508 limits assumed): T1 sequence (P51449 269-508 limits assumed)
Description: RORγ-Ligand Binding Domain (LBD) TR-FRET Assay.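 On TR-FRET Assay Max Response: 665/615 nm ratio relative to signal without ursolic acid or compound set at 100.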 It is filed as biochemical. In short, it runs like this:
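This TR-FRET coactivator assay pairs baculovirus-expressed His-RORγ-LBD (~3 nM final) with biotin-SRC1 LXXLL peptide at 200 nM final in pH 7.0 Tris/KCl/EDTA/DTT/BSA buffer.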
On the technique in general: Time-resolved FRET reads energy transfer from a long-lived donor to a nearby acceptor.

Where [3] appears, read: luciferase reporter, with 2 μM ursolic acid.

From patent US10611740B2, “Aryl dihydro-2H-benzo[b][1,4]oxazine sulfonamide and related compounds for use as agonists of RORγ and the treatment of disease” (Lycera Corporation, priority 2015, dated 2020) come the findings set out here.

As usually defined, the EC50 is the concentration that produces a half-maximal response. As to `O=C(O)C1(C[C@H]2CN(S(=O)(=O)c3cccc(C(F)(F)F)c3)c3cc(-c4cccc(Cl)c4)ccc3O2)CCOCC1` [Compound 78A, (S)-4-((6-(3-chlorophenyl)-4-((3-(trifluoromethyl)phenyl)sulfonyl)-3,4-dihydro-2H-benzo[b][1,4]-oxazin-2-yl)methyl)tetrahydro-2H-pyran-4-carboxylic acid], in assay [1] (2 μM ursolic acid), the EC50 is less than 500 nM and the “Gal4-RORγ Assay Max Response” value is listed as “** (The symbol “**” indicates a value in the range of greater than 90 to 150)”. For the same compound, in assay [2], the EC50 is less than 500 nM and the “TR-FRET Assay Max Response” value is reported as “** (The symbol “**” indicates a value in the range of greater than 90 to 150)”.

In the case of `O=C(O)C1(C[C@H]2CN(S(=O)(=O)c3cccc(C(F)(F)F)c3)c3cc(-c4cccc(Cl)c4F)ccc3O2)CCC1` [Compound 32BF, (S)-1-((6-(3-chloro-2-fluoro-phenyl)-4-((3-(trifluoromethyl)-phenyl)sulfonyl)-3,4-dihydro-2H-benzo[b][1,4]oxazin-2-yl)-methyl)cyclobutane-1-carboxylic acid], in assay [1] (2 μM ursolic acid), the EC50 is less than 500 nM and the “Gal4-RORγ Assay Max Response” value was “** (The symbol “**” indicates a value in the range of greater than 90 to 150)”. In addition, in assay [2], the EC50 is less than 500 nM and the “TR-FRET Assay Max Response” value is “*** (The symbol “***” indicates a value in the range of greater than 150 to 200)”.

For the compound `COc1cccc(-c2ccc3c(c2)N(S(=O)(=O)c2ccc(F)c(OC)c2)C[C@H](CNC(=O)C(C)(C)O)O3)c1` [Compound 30S, (S)-N-((4-((4-fluoro-3-methoxyphenyl)sulfonyl)-6-(3-methoxyphenyl)-3,4-dihydro-2H-benzo[b][1,4]oxazin-2-yl)methyl)-2-hydroxy-2-methylpropanamide], in assay [1] (setting [3]), the EC50 was less than 500 nM and the “Gal4-RORγ Assay Max Response” value is “* (The symbol “*” indicates a value in the range of 25 to 90)”. Also, in assay [2], the EC50 was less than 500 nM and the “TR-FRET Assay Max Response” value is given as “**** (The symbol “****” indicates a value greater than 200)”.

Take `CC(C)(C[C@H]1CN(S(=O)(=O)c2cccc(C(F)(F)F)c2)c2cc(-c3cccc(OC(F)F)c3)ccc2O1)C(=O)O` [Compound 32G, (S)-3-(6-(3-(difluoromethoxy)-phenyl)-4-((3-(trifluoromethyl)-phenyl)sulfonyl)-3,4-dihydro-2H-benzo[b][1,4]oxazin-2-yl)-2,2-dimethylpropanoic acid]: in assay [1] (setting [3]), the EC50 was less than 500 nM and the “Gal4-RORγ Assay Max Response” value is on record as “** (The symbol “**” indicates a value in the range of greater than 90 to 150)”. Besides, in assay [2], the EC50 is less than 500 nM and the “TR-FRET Assay Max Response” value is recorded as “*** (The symbol “***” indicates a value in the range of greater than 150 to 200)”.

On to `O=C(O)[C@@]1(C[C@H]2CN(S(=O)(=O)c3cccc(C(F)(F)F)c3)c3cc(-c4cc(F)cc(OC(F)F)c4)ccc3O2)CCNC1=O` [Compound 74, (R)-3-(((S)-6-(3-(difluoromethoxy)-5-fluorophenyl)-4-((3-(trifluoromethyl)phenyl)sulfonyl)-3,4-dihydro-2H-benzo[b][1,4]oxazin-2-yl)methyl)-2-oxopyrrolidine-3-carboxylic acid], for which, in assay [1] (2 μM ursolic acid), the EC50 is less than 500 nM and the “Gal4-RORγ Assay Max Response” value is on record as “** (The symbol “**” indicates a value in the range of greater than 90 to 150)”. Also, in assay [2], the concentration for a half-maximal effect (EC50) was less than 500 nM and the “TR-FRET Assay Max Response” value is reported as “** (The symbol “**” indicates a value in the range of greater than 90 to 150)”.

Take `COc1cc(Cl)cc(-c2ccc3c(c2)N(S(=O)(=O)c2cccc(C(F)(F)F)c2)C[C@H](CCC(=O)O)O3)c1` [Compound 2AO, (S)-3-(6-(3-chloro-5-methoxyphenyl)-4-((3-(trifluoromethyl)phenyl)-sulfonyl)-3,4-dihydro-2H-benzo[b][1,4]oxazin-2-yl)propanoic acid]: in assay [1] (setting [3]), the EC50 was less than 500 nM and the “Gal4-RORγ Assay Max Response” value was “*** (The symbol “***” indicates a value in the range of greater than 150 to 200)”. In assay [2], the EC50 was less than 500 nM and the “TR-FRET Assay Max Response” value was “**** (The symbol “****” indicates a value greater than 200)”.

On to `Cc1c(F)cc(F)cc1-c1ccc2c(c1)N(S(=O)(=O)c1cccc(C(F)(F)F)c1)C[C@H](CCC(=O)O)O2` [Compound 4AJ, (S)-3-(6-(3,5-difluoro-2-methylphenyl)-4-((3-(trifluoromethyl)phenyl)-sulfonyl)-3,4-dihydro-2H-benzo[b][1,4]oxazin-2-yl)propanoic acid], for which, in assay [1] (setting [3]), the EC50 is less than 500 nM and the “Gal4-RORγ Assay Max Response” value was “** (The symbol “**” indicates a value in the range of greater than 90 to 150)”. Further, in assay [2], the EC50 was less than 500 nM and the “TR-FRET Assay Max Response” value is recorded as “**** (The symbol “****” indicates a value greater than 200)”.

Turning to `O=C(O)CC[C@H]1CN(S(=O)(=O)c2cccc(C(F)(F)F)c2)c2cc(-c3cc(Cl)cc(F)c3F)ccc2O1` [Compound 4AQ, (S)-3-(6-(5-chloro-2,3-difluorophenyl)-4-((3-(trifluoromethyl)phenyl)sul-fonyl)-3,4-dihydro-2H-benzo[b][1,4]oxazin-2-yl)propanoic acid], in assay [1] (setting [3]), the EC50 was less than 500 nM and the “Gal4-RORγ Assay Max Response” value was “** (The symbol “**” indicates a value in the range of greater than 90 to 150)”. Further, in assay [2], the EC50 is less than 500 nM and the “TR-FRET Assay Max Response” value is on record as “**** (The symbol “****” indicates a value greater than 200)”.

Regarding `Cn1cc(-c2ccc3c(c2)N(S(=O)(=O)c2cccc(C(F)(F)F)c2)C[C@H](CCC(=O)O)O3)cn1` [Compound 2AQ, (S)-3-(6-(1-methyl-1H-pyrazol-4-yl)-4-((3-(trifluoromethyl)-phenyl)sulfonyl)-3,4-dihydro-2H-benzo[b][1,4]oxazin-2-yl)propanoic acid], in assay [1] (setting [3]), the EC50 is 500 to 5000 nM and the “Gal4-RORγ Assay Max Response” value was “* (The symbol “*” indicates a value in the range of 25 to 90)”. Besides, in assay [2], the EC50 fell in the range of 500 to 5000 nM and the “TR-FRET Assay Max Response” value is listed as “**** (The symbol “****” indicates a value greater than 200)”.

As to `O=C(O)C1(C[C@H]2CN(S(=O)(=O)c3cccc(C(F)(F)F)c3)c3cc(-c4cc(F)cc(F)c4Cl)ccc3O2)CCOCC1` [Compound 78C, (S)-4-((6-(2-chloro-3,5-difluoro-phenyl)-4-((3-(trifluoromethyl)-phenyl)sulfonyl)-3,4-dihydro-2H-benzo[b][1,4]oxazin-2-yl)methyl)tetrahydro-2H-pyran-4-carboxylic acid], in assay [1] (2 μM ursolic acid), the EC50 is less than 500 nM and the “Gal4-RORγ Assay Max Response” value is recorded as “*** (The symbol “***” indicates a value in the range of greater than 150 to 200)”. Besides, in assay [2], the EC50 is less than 500 nM and the “TR-FRET Assay Max Response” value is “** (The symbol “**” indicates a value in the range of greater than 90 to 150)”.

Regarding `O=C(O)CC[C@H]1CN(S(=O)(=O)c2cccc(C(F)(F)F)c2)c2cc(-c3cc(C(F)(F)F)ccn3)ccc2O1` [Compound 3, (S)-3-(4-((3-(trifluoromethyl)phenyl)sulfonyl)-6-(4-(trifluoromethyl)pyridin-2-yl)-3,4-dihydro-2H-benzo[b][1,4]oxazin-2-yl)propanoic acid], in assay [1] (setting [3]), the EC50 fell in the range of 500 to 5000 nM and the “Gal4-RORγ Assay Max Response” value is on record as “*** (The symbol “***” indicates a value in the range of greater than 150 to 200)”. In assay [2], the EC50 was less than 500 nM and the “TR-FRET Assay Max Response” value is recorded as “*** (The symbol “***” indicates a value in the range of greater than 150 to 200)”.
